SMILES strings stand for the structures.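 How tested: cells in 96-well plates exposed to compound for 48 hours at five concentrations. TGI marks complete inhibition of growth.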 Bounds are passed on as bounds.

Test systems include SF-295 CNS; SF-268 CNS; TK-10 renal; MDA-N; HCC-2998 colon; T-47D breast; MDA-MB-435; OVCAR-8 ovarian; SNB-75 CNS; HT29 colon; UACC-62 melanoma; NCI-H226 lung; OVCAR-3 ovarian; KM12 colon; NCI/ADR-RES ovarian; A498 renal.
What all share (test): NCI anticancer screen, dose series, 48 h

On to `CC(C)CCNC(=O)c1ccc(CNC(=O)/C=C/c2cccc(Oc3ccccc3)c2)cc1`, for which the TGI in the experiment with SF-295 CNS was greater than 100 µM; in the experiment with SF-268 CNS, greater than 100 µM; in the experiment on TK-10 renal, 96.9 µM; in the experiment on MDA-N, 38.3 µM; in the experiment with HCC-2998 colon, greater than 100 µM; with T-47D breast it was greater than 100 µM. Moreover, the TGI in the experiment on MDA-MB-435 is 41.6 µM; with OVCAR-8 ovarian, greater than 100 µM; with SNB-75 CNS, greater than 100 µM; in the experiment on HT29 colon it was greater than 100 µM; in the experiment on UACC-62 melanoma, 71.1 µM; in the experiment with NCI-H226 lung it was greater than 100 µM. Moreover, the TGI in the experiment on OVCAR-3 ovarian was 93 µM; in the experiment on KM12 colon, greater than 100 µM; in the experiment with NCI/ADR-RES ovarian, greater than 100 µM; with A498 renal, greater than 100 µM.

Take `ONC1=Nc2cc(Cl)ccc2C(=S)N2CSCC12` (stereo unspecified): the TGI with SF-295 CNS, in the experiment on SF-268 CNS, in the experiment on TK-10 renal, with MDA-N, in the experiment with HCC-2998 colon and in the experiment on T-47D breast was greater than 100 µM throughout. The TGI in the experiment with MDA-MB-435, with OVCAR-8 ovarian, in the experiment with SNB-75 CNS, with HT29 colon, with UACC-62 melanoma and with NCI-H226 lung was greater than 100 µM each time. Moreover, the TGI with OVCAR-3 ovarian, with KM12 colon, in the experiment on NCI/ADR-RES ovarian and in the experiment on A498 renal was greater than 100 µM each time.

`CC(=O)OCC1OC(N2C(C)=C(C(C)=O)C(c3ccc(Cl)cc3)C(C#N)=C2S)C(OC(C)=O)C(OC(C)=O)C1OC(C)=O` (stereo unspecified): the TGI with SF-295 CNS, in the experiment on SF-268 CNS, in the experiment with TK-10 renal, in the experiment on MDA-N, in the experiment on HCC-2998 colon and in the experiment with T-47D breast was greater than 100 µM in each case. Further, the TGI is greater than 100 µM with MDA-MB-435; greater than 100 µM in the experiment with OVCAR-8 ovarian; greater than 100 µM in the experiment on SNB-75 CNS; greater than 100 µM with HT29 colon; 60.6 µM in the experiment on UACC-62 melanoma; greater than 100 µM in the experiment on NCI-H226 lung. Further, the TGI in the experiment with OVCAR-3 ovarian, in the experiment with KM12 colon, in the experiment with NCI/ADR-RES ovarian and with A498 renal was greater than 100 µM in each case.

Take `O=C1OC(CCCN2CCCCC2)(c2ccccc2)CC12CCCC2` (stereo unspecified): the TGI with SF-295 CNS, in the experiment with SF-268 CNS, with TK-10 renal, in the experiment on MDA-N, in the experiment with HCC-2998 colon and with T-47D breast was greater than 100 µM each time. For the same compound, the TGI in the experiment with MDA-MB-435 is greater than 100 µM; in the experiment on OVCAR-8 ovarian, greater than 100 µM; in the experiment with SNB-75 CNS it was greater than 100 µM; in the experiment on HT29 colon it was greater than 92 µM; in the experiment with UACC-62 melanoma it was greater than 100 µM; with NCI-H226 lung, greater than 100 µM. Besides, the TGI is greater than 100 µM in the experiment with OVCAR-3 ovarian, greater than 100 µM in the experiment with KM12 colon, greater than 100 µM in the experiment with NCI/ADR-RES ovarian and 98.4 µM in the experiment on A498 renal.

For `CC1(C)C2CCC1(C)C(N/C(Sc1ccccc1)=C(/C(Cl)=C(Cl)Cl)[N+](=O)[O-])C2` (stereo unspecified), the TGI amounted to 27.7 µM with SF-295 CNS; 24.4 µM in the experiment with SF-268 CNS; 27.6 µM with MDA-N; 28.5 µM with HCC-2998 colon; 31.2 µM in the experiment on T-47D breast; 25.9 µM in the experiment on MDA-MB-435. For the same compound, the TGI in the experiment on OVCAR-8 ovarian amounted to 27.3 µM; with SNB-75 CNS, 30.4 µM; in the experiment on HT29 colon, 30.7 µM; in the experiment on UACC-62 melanoma, 21.3 µM; in the experiment with NCI-H226 lung, 31.1 µM; in the experiment with OVCAR-3 ovarian, 17.7 µM. In addition, the values for the TGI in the experiment with KM12 colon, in the experiment on NCI/ADR-RES ovarian and in the experiment with A498 renal were 18.8 µM, 30.5 µM and 28.2 µM, respectively.

`C=CC[C@]1(/C=N/O)CN(S(=O)(=O)CC[Si](C)(C)C)C[C@H]2CC=CC[C@H]21`: the TGI is 31 µM in the experiment on SF-295 CNS; greater than 100 µM in the experiment with SF-268 CNS; 36.8 µM with TK-10 renal; 42.8 µM in the experiment with MDA-N; 31.9 µM with HCC-2998 colon; greater than 100 µM in the experiment on T-47D breast. Besides, the TGI in the experiment on MDA-MB-435 was greater than 100 µM; in the experiment with OVCAR-8 ovarian, 67.3 µM; in the experiment with SNB-75 CNS, 54.2 µM; with HT29 colon, 30.8 µM; in the experiment on UACC-62 melanoma it was 64.9 µM; in the experiment with NCI-H226 lung, 34.4 µM. Moreover, the figures for the TGI with KM12 colon, in the experiment with NCI/ADR-RES ovarian and with A498 renal were 51.5 µM, greater than 100 µM and 31.8 µM, respectively.

`CS(=O)(=O)Nc1ccc2ccccc2c1-c1c(NS(C)(=O)=O)ccc2ccccc12`: the TGI with SF-295 CNS, in the experiment on SF-268 CNS, in the experiment with TK-10 renal, in the experiment on MDA-N, in the experiment with HCC-2998 colon and in the experiment with T-47D breast was greater than 25 µM throughout. For the same compound, the TGI in the experiment with MDA-MB-435, in the experiment on OVCAR-8 ovarian, in the experiment with SNB-75 CNS, in the experiment with HT29 colon, in the experiment with UACC-62 melanoma and in the experiment on NCI-H226 lung was greater than 25 µM throughout. The TGI in the experiment on OVCAR-3 ovarian, with KM12 colon, in the experiment on NCI/ADR-RES ovarian and in the experiment on A498 renal was greater than 25 µM each time.

On to `Nc1ccccc1CCN1CCN(CCCc2ccccc2)CC1`, for which the TGI with SF-295 CNS is greater than 100 µM; in the experiment with SF-268 CNS, greater than 100 µM; in the experiment with TK-10 renal, greater than 100 µM; in the experiment on MDA-N it was greater than 100 µM; with HCC-2998 colon it was 39 µM; with T-47D breast, 53.3 µM. The TGI in the experiment on MDA-MB-435, in the experiment on OVCAR-8 ovarian, in the experiment with HT29 colon, with UACC-62 melanoma, in the experiment with NCI-H226 lung and in the experiment with OVCAR-3 ovarian was greater than 100 µM each time. Besides, the TGI in the experiment on KM12 colon, in the experiment on NCI/ADR-RES ovarian and in the experiment on A498 renal was greater than 100 µM in each case.

For `N#CSCC(Cl)=CCl` (mixture of isomers), the TGI in the experiment on SF-295 CNS, in the experiment with SF-268 CNS, with TK-10 renal, in the experiment on MDA-N, in the experiment with HCC-2998 colon and in the experiment with T-47D breast was greater than 100 µM throughout. Besides, the TGI in the experiment on MDA-MB-435, in the experiment on OVCAR-8 ovarian, in the experiment with SNB-75 CNS, in the experiment on HT29 colon, in the experiment on UACC-62 melanoma and in the experiment on NCI-H226 lung was greater than 100 µM each time. Further, the TGI in the experiment on OVCAR-3 ovarian, with KM12 colon, in the experiment on NCI/ADR-RES ovarian and in the experiment on A498 renal was greater than 100 µM in each case.

The values are drawn from PubChem BioAssay (NCI).
